Read-outs that look alike come from different tables or passages of the source.
What was measured:
[1] = Solubility of tetrazolium salts in 0.2M phosphate buffer; type: physicochemical
[2] = Absorption spectra of formazans formed from the tetrazolium salts; type: physicochemical; conditions: 100 μM tetrazolium salt in 100 mM potassium phosphate buffer, 5-fold excess ascorbate; compared with HTC-045
Procedure: The compounds prepared and tested for their solubility had somewhat different spectral properties. The absorption spectra of each formazan formed from the tetrazolium salt and tested for solubility in Table 1 was measured with a Hewlett Packard Model 8453 diode-array UV-visible spectrophotometer. Solutions of 100 μM of a tetrazolium salt were prepared in 100 mM potassium phosphate buffer. The formazan spectra were measured after the addition of 5-fold excess ascorbate acid salt to convert the tet salts to their formazans.

[3] = 0.2M phosphate buffer, pH ~7.5, room temperature

| Compound | Solubilility [1] [mM] | shape of formazan absorbance versus wavelength curve [2] | Solubilility [1, 3] [mM] |
| --- | --- | --- | --- |
| CCOc1ccc2nc(-n3nc(-c4ccc(OCCC[N+](C)(C)C)c(OC)c4)n[n+]3-c3ccccc3OCCC[N+](C)(C)C)sc2c1.O=N[O-].[Br-].[Br-] [Example 7] | 169 | relatively flat | – |
| 5-[4-(3-trimethylammonium)propoxy-3-methoxy-phenyl]-3-[2-(3-trimethylammonium) propoxy-phenyl]-2-(6-bromo-benzothiazol-2-yl)-2H-tetrazolium dibromo nitrite salt [Example 8] | – | relatively flat | – |
| 5-Benzo[1,3 dioxol-5-yl]-3-[2-(3-trimethylammonium) propoxy-phenyl]-2-(5-chloro-4-difluoromethyl-thiazol-2-yl)-2H-tetrazolium bromo nitrite salt [Example 1] | – | relatively flat | – |
| 5-Benzo[1,3 dioxol-5-yl]-3-[2-(3-trimethylammonium) propoxy-phenyl]-2-(6-methoxynapthylthiazol-2-yl)-2 H-tetrazolium bromo nitrite salt [Example 5] | – | rising absorbance verses wavelength curve | – |
| COc1cc(-c2nn(-c3nc(C(F)F)c(Cl)s3)[n+](-c3ccccc3OCCC[N+](C)(C)C)n2)ccc1OCCC[N+](C)(C)C.O=N[O-].[Br-].[Br-] [Example 6, 5-[4-(3-trimethylammonium)propoxy-3-methoxy-phenyl]-3-[2-(3-trimethylammonium)propoxy-phenyl]-2-(5-chloro-4-difluoromethyl-thiazol-2-yl)-2H-tetrazolium dibromo nitrite salt] | – | relatively flat | 181 |
| 5-[4-(3-trimethylammonium) propoxy-3-methoxy-phenyl]-3-[2-(3-trimethylammonium) propoxy-phenyl]-2-(6-ethoxy-benzothiazol-2-yl)-2H-tetrazolium tribromide salt [Example 9] | – | – | 260 |
| 5-Benzo[1,3 dioxol-5-yl]-3-[2-(3-trimethylammonium) propoxy-phenyl]-2(benzothiazol-2-yl)-2 H-tetrazolium bromo nitrite salt [Example 4] | – | relatively flat | – |
| 5-Benzo[1,3 dioxol-5-yl]-3-[2-(3-trimethylammonium) propoxy-phenyl]-2-(5-chloro-4-difluoromethyl-thiazol-2-yl)-2 H-tetrazolium bromo tetrafluoroborate salt [Example 2] | 5 | relatively flat | – |
| Br.CN(C)CCCOc1ccccc1-[n+]1nc(-c2ccc3c(c2)OCO3)nn1-c1nc(C(F)F)c(Cl)s1.O=N[O-] [Example 3, 5-Benzo[1,3 dioxol-5-yl]-3-[2-(3-dimethylhydrogenammoniun)propoxy-phenyl]-2-(5-chloro-4-difluoromethyl-thiazol-2-yl)-2 H-tetrazolium bromo nitrite salt] | 9 | relatively flat | – |

Source: US7767822B2, “Water-soluble tetrazolium salts” (Bayer Healthcare LLC, priority 2005, dated 2010)
